The test system of series [1] is glucose metabolism ability. Nature of the series: Breath test under fasting and glucose-loaded conditions. Type of series: in vivo, rats (OLETF, LETO). As for the experimental part: OLETF rats, which are diabetic animal models, were used as experimental animals, and LETO rats were used as a control. More specifically, after being fasted for 20 hours, Group 1 (control group: […], male, n=5) and Group 2 (diabetes group; OLETF rats, male, n=6) were subjected to the following test.
An aqueous U-^13C-glucose solution (50 μmol/4 mL/kg) was orally administered to Group 1 (control group) and Group 2 (diabetes group) under fasting conditions. In each group, expired air was collected before the U-^13C-glucose administration (0 minutes) and at each point in time (10, 20, 30, 40, 50, 60, 80, 100, and 120 minutes) after the U-^13C-glucose administration. Δ^13C(‰) was determined with a mass spectrometer for expired air analysis (ABCA: produced by Sercon) from the concentration of ^13CO2 excreted in the expired air.
• (2-2-1) An aqueous glucose solution (450 mg/4 mL/kg) and an aqueous U-^13C-glucose solution (50 μmol/4 mL/kg) were orally administered simultaneously to the experimental animals of (1), i.e., Group 1 (control group) and Group 2 (diabetes group). As in (2-1), expired air was collected in each group before the U-^13C-glucose administration (0 minutes) and at each, point in time (10, 20, 30, 40, 50, 60, 80, 100, and 120 minutes) after the U-^13C-glucose administration. Δ^13C(‰) was determined from the concentration of ^13CO2 excreted in the expired air. […]

Series [2] concerns glucose metabolism ability. In words: Evaluation of treatment effect of a therapeutic agent for diabetes with U-13C-glucose breath test. It counts as in vivo, ZDF rats. The conditions noted are these: 300 mg/kg oral for three days; for expired air pattern (changes in the Δ13C(‰)) after vs before administration: non-fasting, FIG. 12. As for the experimental part:
Three groups of ZDF rats (Group A: healthy group (n=4), Group B: diabetes severe onset group (n=6), and Group C: diabetes moderate onset group (n=6)) were used as experimental animals. In the experiment, these ZDF rats were allowed free access to water and feed (containing saccharide, fat, and protein) (MF: Oriental Yeast Co., Ltd.). More specifically, the following experiment was performed under non-fasting conditions.
Metformin (Wako Pure Chemical Industries, Ltd., which is an active ingredient of biguanide therapeutic agents for diabetes (generic name: Melbin), was orally administered to the rats of these groups in an amount of 300 mg/kg every morning for three days. A U-^13C-glucose solution prepared by the method described in (1) of Experimental Example 1 was intravenously administered 3 hours after the administration of metformin on day 3.
Expired air was collected in the rats of each group before the U-^13-glucose administration (0 minutes) and at each point in time (10, 20, 30, 40, 50, 60, 80, 100, and 120 minutes) after the U-^13C-glucose administration. Δ^13(‰) was determined with a mass spectrometer for expired air analysis (ABCA: produced by Sercon) from the concentration of ^13CO2 excreted in the expired air.

Series [3] deals with glucose metabolism ability. The note with it: rat, in vivo, iv.
Procedure: Fasted rats (male, SD rats) as experimental animals were divided into four groups (n=4 per group). The above-prepared ^13C-glucose solutions were individually intravenously administered to the rats in each group (1-^13-Glc-administration group, 2-^13C-Glc-administration group, 3-^13C-Glc-administration group, and U-^13-Glc-adrainistration group) in an amount of 1 mL/kg. Expired air was collected before the administration of each ^13C-glucose solution (0 minutes) and at each point in time (10, 20, 30, 40, 50, 60, 80, 100, and 120 minutes) after the administration of each ^13C-glucose solution, Δ^13C(‰) was determined with a mass spectrometer for expired air analysis (ABCA: produced by Sercon) from the concentration of ^13CO2 excreted in the expired air.
The Δ^13C(‰) was determined by measuring the ^13CO2/^12CO2 concentration ratio (δ^13C value) in the expired air before the administration of each ^13C-glucose solution (0 minutes) and in the expired air at each point in time for collecting the expired air (t minutes) after the administration of each ^13C-glucose solution, and calculating Δ^13C(‰) from the difference between the δ^13C value (δ^13Ct) at each collection point in time (t) and the δ^13C value (δ^13C0) before the administration (δ^13Ct−δ^13C0) (the same applies to the below-described Experimental Examples).
The subject of series [4] is glucose metabolism ability. In words: Evaluation of treatment effect after administration of insulin with 1-13C-glucose breath test. It counts as in vivo, rats (Wistar. The conditions noted are these: STZ rats, FIG. 13. As for the experimental part:
A control group (Wistar rats, male, n=3) and a type 1 diabetes group (STZ rats, male, n=3) were used as experimental animals. In the experiment, these rats were allowed free access to water and feed (containing saccharide, fat, and protein) (MF: Oriental Yeast Co., Ltd.). More specifically, the following experiment was performed under non-fasting conditions.
Rats one week after STZ (streptosocin: SIGMA) were intravenously administered in an amount of 65 mg/mL/kg was used as the type 1 diabetes group (STZ rats).
Insulin (SIGMA) was subcutaneously administered to the type 1 diabetes group in an amount of 30 U/body. […] Expired air was collected in the rats of the groups (control group, type 1 diabetes group, insulin-administered 4 h-diabetes group, and insulin-administered 24 h-diabetes group) before the 1-^13C-glucose administration (0 minutes) and at each point in time (10, 20, 30, 40, 50, 60, 80, 100, and 120 minutes) after the 1-^13C-glucose administration. Δ^13C(‰) was determined with a mass spectrometer for expired air analysis (ABCA: produced by Sercon) from the concentration of ^13CO2 excreted in the expired air.

As to `OC[C@H]1OC(O)[C@H](O)[C@@H](O)[C@@H]1O` (stereo partly drawn) [U-^13C-glucose], the “difference between the Δ13C(‰) value of Group 1 (control group) and Group 2 (diabetes group)” value in series [1] (fasting conditions, oral 50 μmol/4 mL/kg, FIG. 6) is listed as “small”. In series [1] (rat, in vivo), the “difference in the expired air response between Group 1 (control group) and Group 2 (diabetes group)” value is on record as “further widened”; the “expired air pattern of Group 1 (control group) compared with Group 2 (diabetes group)” value is recorded as “significantly high”.

Regarding `CN(C)C(=N)N=C(N)N` [therapeutic agent for diabetes, Metformin], the “expired air pattern (changes in the Δ13C(‰)) after vs before administration” value in series [2] (Group B diabetes severe onset) and in series [2] (Group C diabetes moderate onset) was “higher values” each time. Further, the glucose metabolism ability entry in series [2] (diabetes onset groups B and C) is given as “enhanced”.

Take `OC[C@H]1OC(O)[C@H](O)[13C@@H](O)[C@@H]1O` (stereo partly drawn) [3-^13C-glucose]: in series [3], the “Δ13C(‰) in the expired air up to 30 minutes after the glucose solution administration (rank among 13C-glucoses)” value is listed as “highest”.

For “insulin: Insulin (SIGMA), subcutaneously administered”, in series [4] (4 hours after 30 U/body subcutaneous), the “Δ13C(‰) compared with control group” value is “almost the same as that of the control group”. The “expired air pattern (change in the Δ13C(‰))” value in series [4] (24 hours after 30 U/body subcutaneous) is “low value”.

The values above are taken from US10228365B2, “Method for measuring carbohydrate metabolism ability, and composition for use in said method” (priority 2012, dated 2019).
